Measured values taken from patent US20040242463A1, “Compositions for stabilizing oxygen-labile species” (priority 1999, published 2004).

Assay: Stability of formulations containing retinol, ascorbic acid and/or tocopherol, HPLC assay
Format: physicochemical
From the text: The stability of different formulations containing retinol, ascorbic acid and/or tocopherol as set forth in Examples 7 and 8 below were monitored in terms of appearance and HPLC assay. The degraded products of retinol, ascorbic acid or tocopherol are yellow or brownish in color. The freshly prepared samples were white creams. Discoloration to yellow or brown indicates the instability.

Structure (SMILES)	Effect on stability of tocopherol	Effect of addition on the stability of retinol and tocopherol
O=C1O[C@H]([C@@H](O)CO)C(O)=C1O [ascorbic acid]	assists in stabilizing tocopherol	
CC(=O)N[C@@H](CS)C(=O)O [N-acetlcysteine, N-acetylcysteine]		slightly enhances
